The values that follow are results of earlier work, collected in patent US11446320B1, “Pharmaceutical combination having potent antiviral activity against single-stranded RNA viruses” (priority 2021, dated 2022).

The subject of one data set is SARS-CoV-2. As to conditions: mammalian cells, in vitro.

For the molecule `NC(=O)c1nc(F)c[nH]c1=O` [Favipiravir], in the data set on influenza viruses, the “effectiveness against influenza viruses” value is “effective”. In addition, the effectiveness against arenaviruses entry with arenaviruses is reported as “effective”. The effectiveness against bunyaviruses result with bunyaviruses is on record as “effective”. For the same molecule, in the data set with filoviruses, the effectiveness against filoviruses result is reported as “effective”.
As to `NC(=O)c1nc(F)cn([C@@H]2O[C@H](COP(=O)(O)OP(=O)(O)OP(=O)(O)O)[C@@H](O)[C@H]2O)c1=O` [favipiravir-RTP], in the data set on influenza viruses, the “effectiveness against influenza viruses” value is given as “effective”. In addition, the effectiveness against arenaviruses entry in the data set with arenaviruses is recorded as “effective”. In the data set with bunyaviruses, the effectiveness against bunyaviruses entry is “effective”. The effectiveness against filoviruses entry in the data set on filoviruses is “effective”.
Turning to ivermectin, in the data set on dengue virus, the “inhibition of dengue virus” value is “inhibit”. Also, in the data set with yellow fever virus, the “inhibition of yellow fever virus” value is on record as “inhibit”. Moreover, in the data set with SARS-CoV-2, the “replication of SARS-CoV-2” value is recorded as “slow replication”.
